How the values were obtained:
Test in all cases: SelectScreen Z′-LYTE kinase assay
Type in all cases: biochemical
ABL2 = ABL2 (Homo sapiens, UniProt P42684)
Procedure: (§1) The kinase selectivity profile of BST-4 was performed by the SelectScreen kinase profiling service (Thermo Fisher Scientific). Kinase selectivity assay was performed using Z′-LYTE ™ screening protocol kit. Briefly, the test compounds were screened in 1% DMSO (final). For 10-point titrations, perform a 3-fold dilution starting at a starting concentration of 50 µM. Then 2.5 µL 4× test compound, 2.4 µL kinase buffer, 5 µL 2× kinase mixture and 2.5 µL 4× ATP solution was added in black 384-well plate. After shaking for 30 s, the plates were incubated for 60 min at room temperature. Add developing reagent solution and shake the plate for 30 s, then incubate for 1 h at room temperature. The Fluorescence intensity per well was read using a fluorescence plate reader. SelectScreen® Kinase Profiling Service used XLfit from IDBS. The dose response curve was curve fit to model number 205 (sigmoidal dose-response model) and inhibition rates were calculated. 50% inhibition was used as a activity threshold. IC50 values were calculated based on curve fitting.

BMX = BMX (Homo sapiens, UniProt P51813)
Procedure: as §1

CSF1R = CSF1R (Homo sapiens, UniProt P07333)
Procedure: as §1

DDR1 = DDR1 (Homo sapiens, UniProt Q08345)
Procedure: as §1

EGFR = EGFR (Homo sapiens, UniProt P00533)
Procedure: as §1

EPHA1 = EPHA1 (Homo sapiens, UniProt P21709)
Procedure: as §1

EPHA4 = EPHA4 (Homo sapiens, UniProt P54764)
Procedure: as §1

EPHA6 = EPHA6 (Homo sapiens, UniProt Q9UF33)
Procedure: as §1

EPHB1 = EPHB1 (Homo sapiens, UniProt P54762)
Procedure: as §1

ERBB2 = ERBB2 (Homo sapiens, UniProt P04626)
Procedure: as §1

ERBB4 = ERBB4 (Homo sapiens, UniProt Q15303)
Procedure: as §1

FER = FER (Homo sapiens, UniProt P16591)
Procedure: as §1

FGFR1 = FGFR1 (Homo sapiens, UniProt P11362)
Procedure: as §1

FLT1 = FLT1 (Homo sapiens, UniProt P17948)
Procedure: as §1

FRK = FRK (Homo sapiens, UniProt P42685)
Procedure: as §1

FYN = FYN (Homo sapiens, UniProt P06241)
Procedure: as §1

INSRR = INSRR (Homo sapiens, UniProt P14616)
Procedure: as §1

ITK = ITK (Homo sapiens, UniProt Q08881)
Procedure: as §1

JAK2 = JAK2 (Homo sapiens, UniProt O60674)
Procedure: as §1

KDR = KDR (Homo sapiens, UniProt P35968)
Procedure: as §1

KIT = KIT (Homo sapiens, UniProt P10721)
Procedure: as §1

MST1R = MST1R (Homo sapiens, UniProt Q04912)
Procedure: as §1

MUSK = MUSK (Homo sapiens, UniProt O15146)
Procedure: as §1

NTRK1 = NTRK1 (Homo sapiens, UniProt P04629)
Procedure: as §1

NTRK3 = NTRK3 (Homo sapiens, UniProt Q16288)
Procedure: as §1

PDGFRA = PDGFRA (Homo sapiens, UniProt P16234)
Procedure: as §1

PDGFRB = PDGFRB (Homo sapiens, UniProt P09619)
Procedure: as §1

PTK2B = PTK2B (Homo sapiens, UniProt Q14289)
Procedure: as §1

TEC = TEC (Homo sapiens, UniProt P42680)
Procedure: as §1

TEK = TEK (Homo sapiens, UniProt Q02763)
Procedure: as §1

TXK = TXK (Homo sapiens, UniProt P42681)
Procedure: as §1

TYK2 = TYK2 (Homo sapiens, UniProt P29597)
Procedure: as §1

Chain of EPHA1 (P21709 26-976): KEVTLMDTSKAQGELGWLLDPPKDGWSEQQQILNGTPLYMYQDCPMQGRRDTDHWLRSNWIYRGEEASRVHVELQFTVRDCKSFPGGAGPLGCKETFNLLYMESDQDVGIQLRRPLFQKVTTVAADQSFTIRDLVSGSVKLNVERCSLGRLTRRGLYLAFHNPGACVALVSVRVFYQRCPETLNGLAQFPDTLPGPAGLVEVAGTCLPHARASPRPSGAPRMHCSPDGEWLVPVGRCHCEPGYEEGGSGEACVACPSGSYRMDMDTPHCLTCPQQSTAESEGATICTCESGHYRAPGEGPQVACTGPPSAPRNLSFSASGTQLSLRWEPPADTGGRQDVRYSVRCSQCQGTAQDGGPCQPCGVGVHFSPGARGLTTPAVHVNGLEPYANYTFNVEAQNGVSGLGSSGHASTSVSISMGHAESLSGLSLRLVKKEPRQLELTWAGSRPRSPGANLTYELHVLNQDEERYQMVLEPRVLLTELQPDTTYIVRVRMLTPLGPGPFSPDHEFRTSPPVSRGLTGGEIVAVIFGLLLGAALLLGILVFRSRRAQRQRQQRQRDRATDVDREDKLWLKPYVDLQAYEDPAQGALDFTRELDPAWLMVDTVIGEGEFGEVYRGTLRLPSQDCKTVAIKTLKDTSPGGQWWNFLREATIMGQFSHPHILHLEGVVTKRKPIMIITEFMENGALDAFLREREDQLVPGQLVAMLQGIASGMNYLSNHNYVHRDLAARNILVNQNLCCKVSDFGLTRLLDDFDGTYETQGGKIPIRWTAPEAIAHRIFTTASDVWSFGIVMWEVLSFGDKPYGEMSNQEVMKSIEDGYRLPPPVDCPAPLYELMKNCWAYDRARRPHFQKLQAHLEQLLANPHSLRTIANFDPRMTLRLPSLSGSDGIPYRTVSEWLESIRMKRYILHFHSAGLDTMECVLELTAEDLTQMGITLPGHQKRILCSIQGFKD
Chain of DDR1 (Q08345 19-913): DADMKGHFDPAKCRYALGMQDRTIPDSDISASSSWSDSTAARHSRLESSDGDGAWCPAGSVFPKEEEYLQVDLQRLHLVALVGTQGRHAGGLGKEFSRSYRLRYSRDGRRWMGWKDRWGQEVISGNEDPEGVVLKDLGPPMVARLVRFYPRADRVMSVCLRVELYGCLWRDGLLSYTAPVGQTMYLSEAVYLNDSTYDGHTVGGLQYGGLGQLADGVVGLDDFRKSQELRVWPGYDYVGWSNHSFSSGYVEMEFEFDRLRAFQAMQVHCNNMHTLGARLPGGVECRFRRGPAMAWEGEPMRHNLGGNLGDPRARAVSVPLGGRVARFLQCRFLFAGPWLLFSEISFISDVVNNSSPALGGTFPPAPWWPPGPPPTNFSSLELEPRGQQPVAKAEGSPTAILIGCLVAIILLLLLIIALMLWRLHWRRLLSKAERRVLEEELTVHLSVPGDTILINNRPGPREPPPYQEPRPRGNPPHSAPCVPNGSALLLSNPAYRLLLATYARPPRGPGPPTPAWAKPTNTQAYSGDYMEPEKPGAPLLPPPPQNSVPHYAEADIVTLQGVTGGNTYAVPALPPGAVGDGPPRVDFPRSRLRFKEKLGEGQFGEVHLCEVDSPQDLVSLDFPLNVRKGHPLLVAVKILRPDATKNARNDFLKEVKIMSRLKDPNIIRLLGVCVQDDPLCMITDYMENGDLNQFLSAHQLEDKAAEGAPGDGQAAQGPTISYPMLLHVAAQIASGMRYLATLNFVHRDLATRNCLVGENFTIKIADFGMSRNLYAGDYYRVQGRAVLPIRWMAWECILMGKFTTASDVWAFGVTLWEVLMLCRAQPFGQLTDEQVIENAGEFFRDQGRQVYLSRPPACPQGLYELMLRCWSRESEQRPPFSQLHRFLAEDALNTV
Chain of ERBB2 (P04626 23-1255): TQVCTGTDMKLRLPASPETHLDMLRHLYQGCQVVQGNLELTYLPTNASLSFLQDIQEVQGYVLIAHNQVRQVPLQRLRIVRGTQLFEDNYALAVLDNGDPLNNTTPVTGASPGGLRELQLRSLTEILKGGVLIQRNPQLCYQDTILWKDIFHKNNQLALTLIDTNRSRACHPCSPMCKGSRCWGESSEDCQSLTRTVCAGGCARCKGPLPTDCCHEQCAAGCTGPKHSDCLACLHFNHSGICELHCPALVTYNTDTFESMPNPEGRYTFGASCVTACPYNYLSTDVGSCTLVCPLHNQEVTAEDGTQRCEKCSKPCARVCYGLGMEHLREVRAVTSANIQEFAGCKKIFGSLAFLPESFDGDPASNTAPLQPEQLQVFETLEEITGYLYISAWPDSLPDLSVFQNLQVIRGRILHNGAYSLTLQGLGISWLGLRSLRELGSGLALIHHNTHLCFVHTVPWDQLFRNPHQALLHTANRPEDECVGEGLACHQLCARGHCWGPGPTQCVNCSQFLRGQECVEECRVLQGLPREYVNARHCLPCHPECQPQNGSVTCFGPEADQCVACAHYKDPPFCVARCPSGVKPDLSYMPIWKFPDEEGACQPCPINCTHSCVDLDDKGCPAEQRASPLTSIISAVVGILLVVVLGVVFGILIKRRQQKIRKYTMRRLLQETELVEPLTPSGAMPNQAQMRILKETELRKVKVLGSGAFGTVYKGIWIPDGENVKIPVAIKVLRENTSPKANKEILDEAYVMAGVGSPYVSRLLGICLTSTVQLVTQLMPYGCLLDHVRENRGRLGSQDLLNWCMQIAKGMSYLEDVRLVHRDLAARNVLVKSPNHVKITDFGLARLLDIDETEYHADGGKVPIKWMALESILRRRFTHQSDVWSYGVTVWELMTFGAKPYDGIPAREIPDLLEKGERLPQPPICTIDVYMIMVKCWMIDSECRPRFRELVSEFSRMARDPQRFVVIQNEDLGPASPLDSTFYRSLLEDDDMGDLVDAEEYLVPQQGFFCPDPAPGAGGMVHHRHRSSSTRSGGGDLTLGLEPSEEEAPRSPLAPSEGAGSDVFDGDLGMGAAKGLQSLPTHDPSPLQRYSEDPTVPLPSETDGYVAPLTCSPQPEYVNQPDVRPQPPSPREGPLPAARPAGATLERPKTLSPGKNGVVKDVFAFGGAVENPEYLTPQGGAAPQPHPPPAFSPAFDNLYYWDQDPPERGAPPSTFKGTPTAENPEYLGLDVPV
Chain of ABL2 (P42684 whole entry): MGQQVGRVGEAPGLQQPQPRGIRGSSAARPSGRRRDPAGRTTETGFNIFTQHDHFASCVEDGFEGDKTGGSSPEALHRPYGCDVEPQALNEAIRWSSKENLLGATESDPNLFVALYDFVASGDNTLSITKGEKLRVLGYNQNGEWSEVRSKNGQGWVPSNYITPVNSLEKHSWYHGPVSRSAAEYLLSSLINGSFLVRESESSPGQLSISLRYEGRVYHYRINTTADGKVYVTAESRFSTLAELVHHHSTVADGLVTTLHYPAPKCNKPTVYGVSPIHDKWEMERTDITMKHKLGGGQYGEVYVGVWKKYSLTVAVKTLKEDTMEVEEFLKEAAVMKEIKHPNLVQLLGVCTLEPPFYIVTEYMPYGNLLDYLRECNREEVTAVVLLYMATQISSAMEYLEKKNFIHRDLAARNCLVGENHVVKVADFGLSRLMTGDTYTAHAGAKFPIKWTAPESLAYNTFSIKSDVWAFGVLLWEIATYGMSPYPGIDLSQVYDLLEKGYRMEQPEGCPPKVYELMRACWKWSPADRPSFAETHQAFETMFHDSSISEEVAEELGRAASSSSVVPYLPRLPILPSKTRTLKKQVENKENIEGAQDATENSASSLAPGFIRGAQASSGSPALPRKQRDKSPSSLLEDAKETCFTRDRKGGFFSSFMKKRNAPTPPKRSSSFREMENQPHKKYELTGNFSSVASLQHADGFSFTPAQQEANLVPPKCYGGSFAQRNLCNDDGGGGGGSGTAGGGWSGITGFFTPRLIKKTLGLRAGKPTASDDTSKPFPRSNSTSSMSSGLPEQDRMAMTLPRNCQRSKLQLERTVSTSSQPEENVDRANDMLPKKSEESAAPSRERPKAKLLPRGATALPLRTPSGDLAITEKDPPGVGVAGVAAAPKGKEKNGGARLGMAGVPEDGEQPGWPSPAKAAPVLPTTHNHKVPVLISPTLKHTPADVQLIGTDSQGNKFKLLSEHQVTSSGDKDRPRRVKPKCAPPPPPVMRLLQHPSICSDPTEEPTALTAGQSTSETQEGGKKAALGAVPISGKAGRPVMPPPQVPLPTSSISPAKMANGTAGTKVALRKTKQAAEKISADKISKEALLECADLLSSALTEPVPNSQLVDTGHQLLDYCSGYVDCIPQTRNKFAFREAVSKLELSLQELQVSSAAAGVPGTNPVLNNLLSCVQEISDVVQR
Chain of FGFR1 (P11362 22-822): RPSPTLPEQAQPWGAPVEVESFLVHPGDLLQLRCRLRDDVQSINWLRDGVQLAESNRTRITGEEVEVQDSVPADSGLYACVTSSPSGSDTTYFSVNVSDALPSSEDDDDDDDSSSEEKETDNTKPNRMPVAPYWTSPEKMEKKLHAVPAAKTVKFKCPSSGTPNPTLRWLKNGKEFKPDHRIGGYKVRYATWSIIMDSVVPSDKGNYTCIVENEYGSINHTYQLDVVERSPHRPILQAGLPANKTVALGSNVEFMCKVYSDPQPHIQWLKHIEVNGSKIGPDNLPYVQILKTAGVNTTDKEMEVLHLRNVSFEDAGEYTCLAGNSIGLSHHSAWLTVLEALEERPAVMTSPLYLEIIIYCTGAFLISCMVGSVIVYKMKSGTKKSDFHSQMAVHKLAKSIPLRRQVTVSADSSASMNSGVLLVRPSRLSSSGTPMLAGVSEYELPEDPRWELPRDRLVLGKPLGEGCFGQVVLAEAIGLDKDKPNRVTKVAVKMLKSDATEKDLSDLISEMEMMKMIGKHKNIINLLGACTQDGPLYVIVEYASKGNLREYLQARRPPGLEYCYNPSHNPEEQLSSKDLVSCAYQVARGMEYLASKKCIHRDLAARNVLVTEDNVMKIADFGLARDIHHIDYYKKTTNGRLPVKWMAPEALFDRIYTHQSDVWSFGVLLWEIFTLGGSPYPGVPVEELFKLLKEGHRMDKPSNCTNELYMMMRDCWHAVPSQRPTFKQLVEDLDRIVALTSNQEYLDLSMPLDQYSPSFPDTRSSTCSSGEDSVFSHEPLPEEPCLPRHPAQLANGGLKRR

Work on `CCS(=O)(=O)Cc1cnc(Oc2c(F)cc(F)cc2OCCCCOc2ccc(/C=C/c3cc(OC)cc(OC)c3)cc2)c(-c2cc(C)c3c(=O)[nH]ccn23)c1` [BST-4] yielded an IC50 (ABL2) greater than 10 µM, an inhibition at 1 µM (ABL2) of 0.44% and an IC50 (BMX) greater than 10 µM. For the same molecule, the inhibition at 1 µM (BMX) was 3.05%, the IC50 (CSF1R) was greater than 10 µM and the inhibition at 1 µM (CSF1R) was 2.02%. For the same molecule, the IC50 (DDR1) was greater than 10 µM, the inhibition at 1 µM (DDR1) was 3.63% and the IC50 (EGFR) was greater than 10 µM. For the same molecule, the inhibition at 1 µM (EGFR) was 0.37%, the IC50 (EPHA1) was greater than 10 µM and the inhibition at 1 µM (EPHA1) was 0.02%. It also gave an IC50 (EPHA4) greater than 10 µM, an inhibition at 1 µM (EPHA4) of 0.58% and an IC50 (EPHA6) greater than 10 µM. The inhibition at 1 µM (EPHA6) was 0.26%, the IC50 (EPHB1) was greater than 10 µM and the inhibition at 1 µM (EPHB1) was 3.35%. It also gave an IC50 (ERBB2) greater than 10 µM, an inhibition at 1 µM (ERBB2) of 4.43% and an IC50 (ERBB4) greater than 10 µM. It also gave an inhibition at 1 µM (ERBB4) of 0.78%, an IC50 (FER) greater than 10 µM and an inhibition at 1 µM (FER) of 0.03%. For the same molecule, the IC50 (FGFR1) was greater than 10 µM, the inhibition at 1 µM (FGFR1) was 0.59% and the IC50 (FLT1) was greater than 10 µM. For the same molecule, the inhibition at 1 µM (FLT1) was 0.14%, the IC50 (FRK) was greater than 10 µM and the inhibition at 1 µM (FRK) was 0.95%. The IC50 (FYN) was greater than 10 µM, the inhibition at 1 µM (FYN) was 2.03% and the IC50 (INSRR) was greater than 10 µM. The inhibition at 1 µM (INSRR) was 0.62%, the IC50 (ITK) was greater than 10 µM and the inhibition at 1 µM (ITK) was 0.75%. It also gave an IC50 (JAK2) greater than 10 µM, an inhibition at 1 µM (JAK2) of 0.18% and an IC50 (KDR) greater than 10 µM. For the same molecule, the inhibition at 1 µM (KDR) was 1.51%, the IC50 (KIT) was greater than 10 µM and the inhibition at 1 µM (KIT) was 0.25%. It also gave an IC50 (MST1R) greater than 10 µM, an inhibition at 1 µM (MST1R) of 5.02% and an IC50 (MUSK) greater than 10 µM. It also gave an inhibition at 1 µM (MUSK) of 1.26%, an IC50 (NTRK1) greater than 10 µM and an inhibition at 1 µM (NTRK1) of 0.67%. It also gave an IC50 (NTRK3) greater than 10 µM, an inhibition at 1 µM (NTRK3) of 4.75% and an IC50 (PDGFRA) greater than 10 µM. The inhibition at 1 µM (PDGFRA) was 0.37%, the IC50 (PDGFRB) was greater than 10 µM and the inhibition at 1 µM (PDGFRB) was 0.1%. It also gave an IC50 (PTK2B) greater than 10 µM, an inhibition at 1 µM (PTK2B) of 0.73% and an IC50 (TEC) greater than 10 µM. The inhibition at 1 µM (TEC) was 0.67%, the IC50 (TEK) was greater than 10 µM and the inhibition at 1 µM (TEK) was 4.16%. The IC50 (TXK) was greater than 10 µM, the inhibition at 1 µM (TXK) was 0.09% and the IC50 (TYK2) was greater than 10 µM. The inhibition at 1 µM (TYK2) was 5.33%.

Reference: article PMC11897524 (Frontiers in Pharmacology, 2025)
